Reference: PubChem BioAssay AID1845205 (Molecular Pharmacology Branch, DTP, NCI, 2023)
Where “and” joins values, the source holds several entries; their conditions need not be identical. Identical values can stand only once. Calls of active or inactive are those of the source. Rule for the calls: active = viability on the fitted dose curve at most 10% of control; inactive = the rest.

Test system: MPNST multicellular tumor spheroids, viability % test/control
Assay: Anticancer human tumor MPNST cell line growth inhibition;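 for IC50: spheroids exposed to agents for seven days after three days of growth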;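 for viability, T/C: luminescence signal used as surrogate for viable cell amount; spheroids exposed to agents for seven days after three days of growth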
Conditions: for viability, T/C: stronger effect = lower value
Description: Multicellular complex tumor spheroid response to DNA repair inhibitors in combination with DNA-damaging drugs
This study explores the anticancer activities of DNA-damaging drugs and inhibitors of DNA damage repair, both as single agents and in combinations. Complex tumor spheroids comprised of malignant cells, endothelial cells and mesenchymal stem cells served as an in vitro model for human solid tumors. This model system incorporates physiologically relevant features and patient-derived or established malignant cell lines with clinically relevant genetic alterations from many tumor types. Twenty-six patient-derived or established malignant cell lines were evaluated representing sarcoma, melanoma, small cell lung cancer (SCLC), non-small cell lung cancer (NSCLC), as well as bladder, ovarian and pancreatic cancers. The concentration ranges selected for each drug and investigational agent were based upon clinically achievable concentrations if the clinical Cmax of the agent was known.
Compounds. The drugs and compounds olaparib (NSC753686), talazoparib (NSC767125), berzosertib (NSC777718), elimusertib (NSC800525), nedisertib (NSC802822), VX-984 (NSC792969), AZD-1390 (NSC803789), temozolomide (NSC362856), topotecan (NSC609699), trabectedin (NSC813783), staurosporine (NSC755774), and gemcitabine (NSC613327) were obtained from the National Cancer Institute (NCI) Developmental Therapeutics Program Chemical Repository. The FDA-approved anticancer drug set is available from the Developmental Therapeutics Program at https://dtp.cancer.gov/organization/dscb/obtaining/available_plates.htm. […] The stock solutions were prepared in dimethyl sulfoxide (DMSO, Sigma-Aldrich, St. Louis, MO, cat. D2650) at 400-fold the tested concentration and stored at -70 degrees C. Prior to their use, the stock solutions were diluted in fresh medium and the final DMSO concentration in the assay was 0.25% (v/v). All drugs and investigational agents were tested over a range starting from a high concentration at or near the clinical Cmax and decreasing in half-log increments. If the clinical Cmax for an agent had not been determined, the highest concentration tested was 10 microM.
Cell Lines. The patient-derived cancer cell (PDC) lines: 156681-154-R-J1-PDC, 283228-195-R-J1-PDC, 287954-098-R-J1-PDC, 292921-168-R-J2-PDC, 349418-098-R-PDC, 425362-245-T-J1-PDC, 556581-035-R-J1-PDC, and BL0293-F563-PDC were received from the NCI Patient-Derived Models Repository (PDMR, https://pdmr.cancer.gov). The established cell lines HS-SY-2 (RRID:CVCL_8719), MPNST, and SYO-1 (RRID:CVCL_7146) were obtained from the Sloan Kettering Institute. The alveolar soft parts sarcoma cell line ASPS-1 (RRID:CVCL_S738) was established at the NCI and grown from internal seed stocks. The following established cell lines were purchased from the American Type Culture Collection (ATCC, Manassas, VA): G-401 (ATCC, cat. CRL-1441, RRID:CVCL_0270), SW982 (ATCC, cat. HTB-93, RRID:CVCL_1734), VA-ES-BJ (ATCC, cat. CRL-2138, RRID:CVCL_1785), NCI-H719 (ATCC, cat. CRL-5837, RRID:CVCL_1582), NCI-H196 (ATCC, cat. CRL-5823, RRID:CVCL_1509), NCI-H841 (ATCC, cat. CRL-5845, RRID:CVCL_1595), NCI-H1618 (ATCC, cat. CRL-5879, RRID:CVCL_1480), NCI-H1876 (ATCC, cat. CRL-5902, RRID:CVCL_1503), DMS 114 (ATCC, cat. CRL-2066; RRID:CVCL_1174), NCI-H211 (ATCC, cat. CRL-5824; RRID:CVCL_1529), and SW 1271 (ATCC, cat. CRL-2177, RRID:CVCL_1716). The small cell lung cancer cell line COR-L88 was purchased from Sigma-Aldrich (cat. 92031917-1VL, RRID:CVCL_1141). The non-small cell lung cancer cell lines NCI-H226 (RRID:CVCL_1544) and NCI-H322M (RRID:CVCL_1557) were established at the NCI and grown from internal seed stocks. Pooled donor human umbilical vein endothelial cells (HUVEC, Lonza, cat. CC-2519) and human mesenchymal stem cells (hMSC, Lonza, cat. PT-2501) were purchased from Lonza (Walkersville, MD).
Cell Culture. All cells were maintained in an incubator at 37 degrees C and 5% CO2 with 95% humidity. […]

Compound	viability, T/C (compound 0.0316 µM)	viability, T/C (compound 0.1 µM)	viability, T/C (compound 0.316 µM)	viability, T/C (compound 1 µM)	viability, T/C (compound 3.16 µM)	viability, T/C (compound 10 µM)	IC50 (curve of compound)	viability, T/C (compound 0.03 µM)	viability, T/C (compound 0.3 µM)	also measured
CC(C)n1c(=O)n(C)c2cnc3cc(F)c(-c4ccc(OCCCN5CCCCC5)nc4)cc3c21	116% and 75.2% and 95.3%	92% and 92.2% and 75.8%	105% and 84.5% and 144%	93.2% and 88.2% and 84.2%	92.5% and 85.4% and 72.3%	63.2% and 56.1% and 54.5%	> 10000 nM	–	–	–
CC1COCCN1c1cc(-c2ccnn2C)c2ccnc(-c3ccn[nH]3)c2n1 (stereo not given)	54.6% and 70.5% and 65.8%	47.8% and 60% and 55.1%	37.7% and 46.4% and 41.8%	39.5% and 46.2% and 33.2%	28.1% and 34.2% and 28.3%	22.3% and 30.9% and 25%	65.9 nM and 315 nM and 154 nM	–	–	–
CC[C@@]1(O)C(=O)OCc2c1cc1n(c2=O)Cc2cc3c(CN(C)C)c(O)ccc3nc2-1	–	–	–	–	–	–	–	53% [middle of 10 runs]	41.1% [middle of 10 runs]	IC50 (compound alone, run of 12/16/2019): 28.5 nM [middle of 5 runs]
CNCc1ccc(-c2cc(-c3nc(-c4ccc(S(=O)(=O)C(C)C)cc4)cnc3N)on2)cc1	–	–	–	–	–	–	> 3000 nM and 495 nM	113% and 110% and 98.9%	74.1% and 69.5% and 55.1%	viability, T/C (compound 0.00949 µM): 119% and 97.4% and 89.4%; viability, T/C (compound 0.0949 µM): 100% and 81.1% and 87.2%; viability, T/C (compound 0.949 µM): 61.8% and 69.6% and 42.9%; viability, T/C (compound 3 µM): 65.9% and 69.1% and 43.7%
COc1cc(C)[nH]c(=O)c1CN1CCc2c(Cl)cc(C(OC)C3COC3)c(Cl)c2C1=O (stereo not given)	77.2% and 80.5% and 102%	79.6% and 90% and 88.8%	84.7% and 83.3% and 96%	95.8% and 93.7% and 93.3%	89.1% and 96.8% and 98.1%	85.9% and 98.7% and 92.1%	> 10000 nM	–	–	–
COc1cc2c(cc1O)CCNC21CSC2c3c(OC(C)=O)c(C)c4c(c3C(COC1=O)N1C(O)C3Cc5cc(C)c(OC)c(O)c5C(C21)N3C)OCO4 (stereo not given)	–	–	–	–	–	–	–	–	–	viability, T/C (compound 0.003 µM): 12.3% [middle of 10 runs]
COc1ccc([C@@H](O)c2cc(-c3ncnc4cc(N5CCOCC5)ccc34)c(F)cc2Cl)nn1	33.1% and 109% and 92.9%	26% and 94% and 75.6%	21.6% and 87.5% and 78.7%	14.7% and 50.9%	–	–	–	–	–	outcome (compound 1 µM): inactive
Cc1cc(C)c(CNC(=O)c2cc(-c3ccc(CN4CCOCC4)cc3)cc3c2cnn3C2CCCC2)c(=O)[nH]1	75.2% and 93.7% and 93.8%	119% and 109% and 93.5%	90.4% and 118% and 91.3%	97.2% and 101% and 92.3%	107% and 114% and 98.7%	79.3% and 100% and 107%	> 10000 nM	–	–	–
Cc1sc2c(c1C)C(c1ccc(Cl)cc1)=NC(CC(=O)Nc1ccc(O)cc1)c1nnc(C)n1-2 (stereo not given)	–	–	–	–	–	–	–	110% and 117% and 95.1%	63.9% and 75.2% and 36.5%	viability, T/C (compound 0.00949 µM): 124% and 109% and 90.5%; viability, T/C (compound 0.0949 µM): 92.3% and 99.1% and 60.3%; viability, T/C (compound 0.949 µM): 51.5% and 55.6% and 23.4%; viability, T/C (compound 3 µM): 46.8% and 52.1% and 25.7%
